# Biological target: T1, human ERK-2 (Mitogen Activated Kinase 1) (Homo sapiens, UniProt P28482)
# T1 construct: n-terminal 6-His fusion protein in E. coli and corresponding to aa 8-360; 6-His (N); made in house; host or cells: E. coli
# Test: ERK-2 Enzymatic Assay
# Assay type: biochemical
# Conditions: ERK-2 enzymatic assay; read-out: IC50
# From the text: Table 1 contains representative data for Examples disclosed herein.
# T1 sequence (P28482 8-360): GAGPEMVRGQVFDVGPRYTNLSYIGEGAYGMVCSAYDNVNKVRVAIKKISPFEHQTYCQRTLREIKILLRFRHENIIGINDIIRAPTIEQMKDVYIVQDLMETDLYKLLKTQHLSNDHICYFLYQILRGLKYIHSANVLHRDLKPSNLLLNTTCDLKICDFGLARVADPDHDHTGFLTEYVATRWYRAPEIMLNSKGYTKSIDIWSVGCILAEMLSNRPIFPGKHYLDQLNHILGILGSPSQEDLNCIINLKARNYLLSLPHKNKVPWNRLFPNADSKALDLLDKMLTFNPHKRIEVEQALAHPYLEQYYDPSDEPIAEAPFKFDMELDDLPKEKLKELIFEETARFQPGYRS
row,Compound,IC50 [nM]
1,"Cn1nccc1Nc1nccc(-c2ccc3c(c2)nnn3C2CNCCC2c2cccc(F)c2)n1 (stereo not drawn) [Example 89, 4-(1-(4-(3-fluorophenyl)piperidin-3-yl)-1H-benzoyl[d][1,2,3]triazol-5-yl)-N-(1-methyl-1H-pyrazol-5-yl)pyrimidin-2-amine]",< 100
2,"Cn1nccc1Nc1nccc(-c2ccc3c(c2)nnn3C2CNCCC2c2ccc(F)cc2)n1 (stereo not drawn) [Example 90, 4-(1-(4-(4-fluorophenyl)piperidin-3-yl)-1H-benzo[d][1,2,3]triazol-5-yl)-N-(1-methyl-1H-pyrazol-5-yl)pyrimidin-2-amine]",< 100
3,"CN(C)CC(c1ccc(Cl)c(F)c1)n1nnc2cc(-c3ccnc(Nc4ccnn4C)n3)ccc21 (stereo not drawn) [Example 91, 4-(1-(1-(4-chloro-3-fluorophenyl)-2-(dimethylamino)ethyl)-1H-benzo[d][1,2,3]triazol-5-yl)-N-(1-methyl-1H-pyrazol-5-yl)pyrimidin-2-amine]",< 100
4,"Cn1nccc1Nc1nccc(-c2ccc3c(c2)nnn3C(CN2CCCC2)c2ccc(Cl)c(F)c2)n1 (stereo not drawn) [Example 92, 4-(1-(1-(4-chloro-3-fluorophenyl)-2-(pyrrolidin-1-yl)ethyl)-1H-benzo[d][1,2,3]triazol-5-yl)-N-(1-methyl-1H-pyrazol-5-yl)pyrimidin-2-amine]",< 100
5,"Cn1nccc1Nc1nccc(-c2ccc3c(c2)nnn3[C@H](CO)c2ccc(Cl)c(F)c2)n1 [Example 93, (S)-2-(4-chloro-3-fluorophenyl)-2-(5-(2-((1-methyl-1H--pyrazol-5-yl)amino)pyrimidin-4-yl)-1H-benzo[d][1,2,3]triazol-1-yl)ethanol]",< 100
6,"Cn1nccc1Nc1nccc(-c2ccc3c(c2)nnn3[C@@H](CO)c2ccc(Cl)c(F)c2)n1 [Example 94, (R)-2-(4-chloro-3-fluorophenyl)-2-(5-(2-((1-methyl-1H-pyrazol-5-yl)amino)pyrimidin-4-yl)-1H-benzo[d][1,2,3]triazol-1-yl)ethanol]",< 100
7,"COc1ccc([C@@H](CO)n2nnc3cc(-c4ccnc(Nc5ccnn5C)n4)ccc32)cc1F [Example 95, (S)-2-(3-fluoro-4-methoxyphenyl)-2-(5-(2-((1-methyl-1H-pyrazol-5-yl)amino)pyrimidin-4-yl)-1H-benzo[d][1,2,3]triazol-1-yl)ethanol]",< 100
8,"CCC(C)Cn1nnc2cc(-c3ccnc(Nc4cnn(C)c4)n3)ccc21 (stereo not drawn) [Example 96, N-(1-methyl-1H-pyrazol-4-yl)-4-(1-(2-methylbutyl)-1H-benzo[d][1,2,3]triazol-5-yl)pyrimidin-2-amine]",< 100
9,"CC(C)Cn1nnc2cc(-c3ccnc(Nc4cnn(C)c4)n3)ccc21 [Example 97, 4-(1-isobutyl-1H-benzo[d][1,2,3]triazol-5-yl)-N-(1-methyl-1H-pyrazol-4-yl)pyrimidin-2-amine]",< 100
10,"CCC(C)Cn1nnc2cc(-c3ccnc(N[C@@H](C)CO)n3)ccc21 (stereo partly drawn) [Example 98, (2S)2-((4-(1-(2-methylbutyl)-1H-benzo[d][1,2,3]triazol-5-yl)pyrimidin-2-yl)amino)propan-1-ol]",< 100
11,"CC(C)Cn1nnc2cc(-c3ccnc(Nc4cnn(C)n4)n3)ccc21 [Example 99, 4-(1-isobutyl-1H-benzo[d][1,2,3]triazol-5-yl)-N-(2-methyl-2H-1,2,3-triazol-4-yl)pyrimidin-2-amine]",< 100
12,"CCC(C)Cn1nnc2cc(-c3ccnc(Nc4cnn(C)n4)n3)ccc21 (stereo not drawn) [Example 100, N-(2-methyl-2H-1,2,3-triazol-4-yl)-4-(1-(2-methylbutyl)-1H-benzo[d][1,2,3]triazol-5-yl)pyrimidin-2-amine]",< 100
13,"Cn1nccc1Nc1nccc(-c2ccc3c(c2)nnn3CC2CCCCO2)n1 (stereo not drawn) [Example 101, N-(1-methyl-1H-pyrazol-5-yl)-4-(1-((tetrahydro-2H-pyran-2-yl)methyl)-1H-benzoyl[d][1,2,3]triazol-5-yl)pyrimidin-2-amine]",< 100
14,"CC(C)OCCCn1nnc2cc(-c3ccnc(Nc4ccnn4C)n3)ccc21 [Example 102, 4-(1-(3-isopropoxypropyl)-1H-benzo[d][1,2,3]triazol-5-yl)-N-(1-methyl-1H-pyrazol-5-yl)pyrimidin-2-amine]",< 100
15,"Cc1cnn(CCn2nnc3cc(-c4ccnc(Nc5ccnn5C)n4)ccc32)c1 [Example 103, 4-(1-(2-(4-methyl-1H-pyrazol-1-yl)ethyl)-1H-benzo[d][1,2,3]triazol-5-yl)-N-(1-methyl-1H-pyrazol-5-yl)pyrimidin-2-amine]",< 100
16,"COc1cccc(F)c1CN1CCC[C@@H](n2nnc3cc(-c4ccnc(Nc5ccnn5C)n4)ccc32)C1 [Example 105, (R)-4-(1-(1-(2-fluoro-6-methoxybenzyl)piperidin-3-yl)-1H-benzo[d][1,2,3]triazol-5-yl)-N-(1-methyl-1H-pyrazol-5-yl)pyrimidin-2-amine]",< 100
17,"COc1cccc(F)c1CN1C[C@H](n2nnc3cc(-c4ccnc(Nc5ccnn5C)n4)ccc32)CC(F)(F)C1 [Example 106, (R)-4-(1-(5,5-difluoro-1-(2-fluoro-6-methoxybenzyl)piperidin-3-yl)-1H-benzo[d][1,2,3]triazol-5-yl)-N-(1-methyl-1H-pyrazol-5-yl)pyrimidin-2-amine]",< 100
18,"Fc1cccc(Cn2nnc3cc(-c4ccnc(NC5CCOCC5)n4)ccc32)c1 [Example 107, 4-(1-(3-fluorobenzyl)-1H-benzo[d][1,2,3]triazol-5-yl)-N-(tetrahydro-2H-pyran-4-yl)pyrimidin-2-amine]",< 100
19,"Cn1nccc1Nc1nccc(-c2ccc3c(c2)nnn3Cc2ccc(Cl)c(F)c2)n1 [Example 108, 4-(1-(4-chloro-3-fluorobenzyl)-1H-benzo[d][1,2,3]triazol-5-yl)-N-(1-methyl-1H-pyrazol-5-yl)pyrimidin-2-amine]",< 100
20,"Fc1cc(Cn2nnc3cc(-c4ccnc(NC5CCOCC5)n4)ccc32)ccc1Cl [Example 109, 4-(1-(4-chloro-3-fluorobenzyl)-1H-benzo[d][1,2,3]triazol-5-yl)-N-(tetrahydro-2H-pyran-4-yl)pyrimidin-2-amine]",< 100
21,"COc1ccc(Cn2nnc3cc(-c4ccnc(NC5CCOCC5)n4)ccc32)cc1F [Example 110, 4-(1-(3-fluoro-4-methoxybenzyl)-1H-benzo[d][1,2,3]triazol-5-yl)-N-(tetrahydro-2H-pyran-4-yl)pyrimidin-2-amine]",< 100

# Results, then the compound that gave them:
row,IC50 [nM],Compound
1,< 100,"Fc1ccc(Cn2nnc3cc(-c4ccnc(NC5CCOCC5)n4)ccc32)cc1 [Example 111, 4-(1-(4-fluorobenzyl)-1H-benzo[d][1,2,3]triazol-5-yl)-N-(tetrahydro-2H-pyran-4-yl)pyrimidin-2-amine]"
2,< 100,Clc1ccc(Cn2nnc3cc(-c4ccnc(NC5CCOCC5)n4)ccc32)cc1 [Example 112]
3,< 100,"COc1ccc(Cn2nnc3cc(-c4ccnc(Nc5ccnn5C)n4)ccc32)cc1F [Example 113, 4-(1-(3-fluoro-4-methoxybenzyl)-1H-benzol[d][1,2,3]triazol-5-yl)-N-(1-methyl-1H-pyrazol-5-yl)pyrimidin-2-amine]"
4,< 100,"CC(C)Cn1nnc2cc(-c3ccnc(Nc4ccnn4C)n3)cnc21 [Example 114, 4-(3-isobutyl-3H-[1,2,3]triazolo[4,5-b]pyridin-6-yl)-N-(1-methyl-1H-pyrazol-5-yl)pyrimidin-2-amine]"
5,< 100,"Cn1nccc1Nc1cc(-c2cnc3c(c2)nnn3Cc2cccc(Cl)c2)ccn1 [Example 115, 4-(3-(3-chlorobenzyl)-3H-[1,2,3]triazolo[4,5-b]pyridin-6-yl)-N-(1-methyl-1H-pyrazol-5-yl)pyridin-2-amine]"
6,< 100,"Cn1nccc1Nc1nccc(-c2cnc3c(c2)nnn3Cc2ccc(Cl)cc2)n1 [Example 116, 4-(3-(4-chlorobenzyl)-3H-[1,2,3]triazolo[4,5-b]pyridin-6-yl)-N-(1-methyl-1H-pyrazol-5-yl)pyrimidin-2-amine]"
7,< 100,"Cn1nccc1Nc1nccc(-c2ccc3c(c2)nnn3Cc2cccc(Cl)c2)n1 [Example 117, 4-(1-(3-chlorobenzyl)-1H-benzo[d][1,2,3]triazol-5-yl)-N(1-methyl-1H-pyrazol-5-yl)pyrimidin-2-amine]"
8,< 100,"Cn1nccc1Nc1nccc(-c2cnc3c(c2)nnn3CCc2cccc(Cl)c2)n1 [Example 118, 4-(3-(3-chlorophenethyl)-3H-[1,2,3]triazolo[4,5-b]pyridin-6-yl)-N-(1-methyl-1H-pyrazol-5-yl)pyrimidin-2-amine]"
9,< 100,"Cn1nccc1Nc1nccc(-c2cnc3c(c2)nnn3Cc2ccc(Cl)c(F)c2)n1 [Example 119, 4-(3-(4-chloro-3-fluorobenzyl)-3H-(1,2,3]triazolo[4,5-b]pyridin-6-yl)-N-(1-methyl-1H-pyrazol-5-yl)pyrimidin-2-amine]"
10,< 100,"Cn1nccc1Nc1nccc(-c2ccc3c(c2)nnn3Cc2cccc(F)c2)n1 [Example 120, 4-(1-(3-fluorobenzyl)-1H-benzo[d][1,2,3]triazol-5-yl)-N-(1-methyl-1H-pyrazol-5-yl)pyrimidin-2-amine]"
11,< 100,"Cn1nccc1Nc1nccc(-c2cnc3c(c2)nnn3Cc2ccc(F)c(Cl)c2)n1 [Example 121, 4-(3-(3-chloro-4-fluorobenzyl)-3H-[1,2,3]triazolo[4,5-b]pyridin-6-yl)-N-(1-methyl-1H-pyrazol-5-yl)pyrimidin-2-amine]"
12,< 100,Cn1nccc1Nc1nccc(-c2ccc3c(c2)nnn3Cc2ccccc2C(F)(F)F)n1 [Example 122]
13,< 100,Cn1nccc1Nc1nccc(-c2ccc3c(c2)nnn3Cc2ccc(F)cc2F)n1 [Example 123]
14,< 100,"Cn1nccc1Nc1nccc(-c2cnc3c(c2)nnn3Cc2cccc(Cl)c2)n1 [Example 124, 4-(3-(3-chlorobenzyl)-3H-[1,2,3]triazolo[4,5-b]pyridin-6-yl)-N-(1-methyl-1H-pyrazol-5-yl)pyrimidin-2-amine]"
15,< 100,"Cn1nccc1Nc1nccc(-c2ccc3c(c2)nnn3Cc2ccc(F)c(Cl)c2)n1 [Example 125, 4-(1-(3-chloro-4-fluorobenzyl)-1H-benzo[d][1,2,3]triazol-5-yl)-N-(1-methyl-1H-pyrazol-5-yl)pyrimidin-2-amine]"
